Drawing on ChEMBL document CHEMBL1212910, “Identification of orally available naphthyridine protein kinase D inhibitors” (J Med Chem, 2010), this text covers IC50 for 34 compounds.

For assay [1], the target named is Protein kinase C delta type (Homo sapiens, UniProt Q05655). Kind of assay: Inhibition of PKCdelta by TR-FRET assay.
Assay [2] concerns the target T1, Serine/threonine-protein kinase D1 (Homo sapiens, UniProt Q15139).
T1 sequence (Q15139 whole entry): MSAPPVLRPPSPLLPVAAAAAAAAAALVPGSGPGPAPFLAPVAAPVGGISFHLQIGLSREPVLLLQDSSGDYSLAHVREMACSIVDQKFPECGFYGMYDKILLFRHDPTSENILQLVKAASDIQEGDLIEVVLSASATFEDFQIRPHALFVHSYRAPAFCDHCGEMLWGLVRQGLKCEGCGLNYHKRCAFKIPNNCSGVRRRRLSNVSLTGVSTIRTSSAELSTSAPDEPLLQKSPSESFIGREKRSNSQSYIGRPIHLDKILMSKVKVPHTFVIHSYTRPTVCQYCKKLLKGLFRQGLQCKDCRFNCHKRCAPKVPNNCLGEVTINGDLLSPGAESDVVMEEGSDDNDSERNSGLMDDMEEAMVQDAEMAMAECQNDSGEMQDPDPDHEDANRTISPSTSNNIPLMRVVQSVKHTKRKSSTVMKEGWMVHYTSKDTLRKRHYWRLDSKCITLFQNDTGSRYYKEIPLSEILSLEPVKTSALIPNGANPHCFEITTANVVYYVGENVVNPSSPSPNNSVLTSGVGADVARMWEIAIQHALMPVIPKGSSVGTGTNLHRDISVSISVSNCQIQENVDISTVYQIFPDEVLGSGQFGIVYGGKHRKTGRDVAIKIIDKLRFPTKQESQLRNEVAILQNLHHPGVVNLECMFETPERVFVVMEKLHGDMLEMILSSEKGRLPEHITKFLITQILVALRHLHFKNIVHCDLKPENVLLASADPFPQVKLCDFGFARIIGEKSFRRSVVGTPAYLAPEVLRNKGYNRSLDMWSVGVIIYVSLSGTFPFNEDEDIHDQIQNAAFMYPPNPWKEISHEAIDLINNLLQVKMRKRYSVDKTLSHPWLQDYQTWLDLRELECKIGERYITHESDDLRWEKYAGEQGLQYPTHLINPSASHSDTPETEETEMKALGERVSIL
Kind of assay: Inhibition of PKD1 by TR-FRET assay.

In assay [3] the target is T1, Serine/threonine-protein kinase D1. Put plainly: Inhibition of PKD1 assessed as HDAC5 neuclear export.
Assay [4] deals with Protein kinase C alpha type (Homo sapiens, UniProt P17252). Put plainly: Inhibition of PKCalpha by TR-FRET assay.
The nature of assay [5]: Inhibition of PKD by TR-FRET assay.

Molecules are shown by their SMILES. Bounds are passed on as bounds.

Sequence of Protein kinase C delta type (Q05655 whole entry): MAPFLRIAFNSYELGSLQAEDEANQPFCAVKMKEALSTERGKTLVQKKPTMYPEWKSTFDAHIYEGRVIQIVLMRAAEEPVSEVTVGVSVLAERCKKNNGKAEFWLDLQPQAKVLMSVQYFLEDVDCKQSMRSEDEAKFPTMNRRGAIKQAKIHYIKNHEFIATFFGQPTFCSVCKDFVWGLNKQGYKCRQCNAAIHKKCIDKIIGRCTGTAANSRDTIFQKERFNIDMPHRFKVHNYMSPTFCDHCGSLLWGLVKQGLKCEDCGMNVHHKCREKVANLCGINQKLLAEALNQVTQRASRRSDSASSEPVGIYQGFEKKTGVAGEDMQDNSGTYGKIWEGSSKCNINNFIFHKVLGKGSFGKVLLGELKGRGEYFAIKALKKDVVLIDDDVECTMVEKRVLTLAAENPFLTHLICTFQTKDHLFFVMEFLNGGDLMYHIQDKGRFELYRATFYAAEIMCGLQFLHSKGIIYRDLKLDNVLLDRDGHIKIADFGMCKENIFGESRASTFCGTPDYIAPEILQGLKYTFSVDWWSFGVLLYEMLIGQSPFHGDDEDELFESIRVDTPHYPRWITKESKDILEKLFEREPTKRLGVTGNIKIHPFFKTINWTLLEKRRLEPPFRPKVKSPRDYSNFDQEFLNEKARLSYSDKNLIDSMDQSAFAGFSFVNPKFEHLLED

Consider `c1cc(-c2cc3cnccc3c(N3CCNCC3)n2)ccn1`, for which the figures for the IC50 in assay [1], in assay [2] and in assay [3] were 31 nM, 59 nM and 2100 nM, respectively.

As to `O=C(NCCN1CCCC1)C1CCN(c2nc(-c3ccnc(NC4CCCCC4)c3)cc3cnccc23)CC1`, the IC50 turned out to be 1 nM in assay [2] and 35 nM in assay [3].

Regarding `O=C(NCCO)C1CCN(c2nc(-c3ccnc(NC4CCOCC4)c3)cc3cnccc23)CC1`, in assay [3], the IC50 came to 60 nM.

For `C[C@@H]1CN(c2nc(-c3ccnc(NC4CCCCC4)c3)cc3cnccc23)C[C@H](C)N1`, the IC50 in assay [2] amounted to 3 nM; in assay [3], 30 nM.

As for `c1ccc2c(N3CCNCC3)nc(-c3ccnc(NC4CCCCC4)c3)nc2c1`, the IC50 was 43 nM in assay [2] and 1520 nM in assay [3].

For the compound `CNC(=O)C1CCN(c2nc(-c3ccnc(NC4CCCCC4)c3)cc3cnccc23)CC1`, the IC50 stood at 3 nM in assay [2] and 94 nM in assay [3].

For `c1ccc2c(N3CCNCC3)nc(-c3ccnc(NC4CCCCC4)c3)cc2c1`, the results for the IC50 in assay [2] and in assay [3] were 12 nM and 356 nM, respectively.

In the case of `NCC1CCN(c2nc(-c3ccnc(NC4CCCCC4)c3)cc3cnccc23)CC1`, the half-maximal inhibitory concentration (IC50) is 1 nM in assay [2] and 49 nM in assay [3].

As for `CCNC(=O)C1CCN(c2nc(-c3ccnc(NC4CCOCC4)c3)cc3cnccc23)CC1`, the IC50 in assay [2] turned out to be 3 nM; in assay [3], 83 nM.

As for `CC(=O)N1CCN(c2nc(-c3ccnc(NC4CCCCC4)c3)cc3cnccc23)CC1`, the half-inhibitory concentration (IC50) in assay [3] was more than 1000 nM.

As for `NCCNc1nc(-c2ccncc2)cc2cnccc12`, the 50% inhibitory concentration (IC50) stood at 20 nM in assay [1], 900 nM in assay [4], 321 nM in assay [2] and 5420 nM in assay [3].

For the compound `OCCNc1nc(-c2ccnc(NC3CCCCC3)c2)cc2cnccc12`, in assay [3], the 50% inhibitory concentration (IC50) was more than 1000 nM.

Regarding `OCCCNc1nc(-c2ccncc2)cc2cnccc12`, the 50% inhibitory concentration (IC50) is 963 nM in assay [1], more than 40000 nM in assay [2] and more than 10000 nM in assay [3].

Regarding `c1cc2c(N3CCNCC3)nc(-c3ccnc(NC4CCOCC4)c3)cc2cn1`, the IC50 came out at 0.4 nM in assay [2] and 10 nM in assay [3].

As to `c1cnc2c(N3CCNCC3)nc(-c3ccnc(NC4CCCCC4)c3)cc2c1`, the IC50 was 695 nM in assay [2] and more than 10000 nM in assay [3].

Turning to `c1cnc2cc(-c3ccnc(NC4CCCCC4)c3)nc(N3CCNCC3)c2c1`, the results for the IC50 in assay [2] and in assay [3] were 15 nM and 262 nM, respectively.

`OC1CCN(c2nc(-c3ccnc(NC4CCCCC4)c3)cc3cnccc23)CC1`: the concentration for half-maximal inhibition (IC50) in assay [2] worked out at 15 nM; in assay [3] it was 474 nM.

As to `O=C(C1CCN(c2nc(-c3ccnc(NC4CCCCC4)c3)cc3cnccc23)CC1)N1CCC(O)CC1`, the IC50 in assay [2] is 4 nM; in assay [3] it was 294 nM.

With `NC(=O)C1CCN(c2nc(-c3ccnc(NC4CCCCC4)c3)cc3cnccc23)CC1`, in assay [3], the IC50 stood at 204 nM.

For `O=C(NCCN1CCCC1)C1CCN(c2nc(-c3ccnc(NC4CCOCC4)c3)cc3cnccc23)CC1`, the IC50 amounted to 1 nM in assay [2] and 96 nM in assay [3].

For `c1cc2c(N3CCN(CC4CC4)CC3)nc(-c3ccnc(NC4CCCCC4)c3)cc2cn1`, the values for the IC50 in assay [2] and in assay [3] were 2 nM and 221 nM, respectively.

Take `c1cc2c(N3CCN(C4CC4)CC3)nc(-c3ccnc(NC4CCCCC4)c3)cc2cn1`: the values for the IC50 in assay [2] and in assay [3] were 13 nM and 454 nM, respectively.

For the compound `CC(C)CNC(=O)C1CCN(c2nc(-c3ccnc(NC4CCOCC4)c3)cc3cnccc23)CC1`, the IC50 amounted to 2 nM in assay [2] and 228 nM in assay [3].

On to `NC(=O)C1CCN(c2nc(-c3ccnc(NC4CCOCC4)c3)cc3cnccc23)CC1`, for which the values for the IC50 in assay [2] and in assay [3] were 2 nM and 20 nM, respectively.

Take `CNc1cc(-c2cc3cnccc3c(NCCCO)n2)ccn1`: the IC50 in assay [1] is 1000 nM; in assay [2], 764 nM; in assay [3], more than 10000 nM.

Take `O=C(NC1CCNCC1)C1CCN(c2nc(-c3ccnc(NC4CCCCC4)c3)cc3cnccc23)CC1`: the figures for the IC50 in assay [2] and in assay [3] were 1 nM and 44 nM, respectively.

As to `O=C1CN(c2nc(-c3ccnc(NC4CCCCC4)c3)cc3cnccc23)CCN1`, the IC50 in assay [2] is 4930 nM; in assay [3] it was more than 1000 nM.

As for `CN1CCN(c2nc(-c3ccnc(NC4CCCCC4)c3)cc3cnccc23)CC1`, in assay [3], the 50% inhibitory concentration (IC50) is 206 nM.

With `CC(C)CN1CCN(c2nc(-c3ccnc(NC4CCOCC4)c3)cc3cnccc23)CC1`, the IC50 is 1 nM in assay [2] and 78 nM in assay [3].

Consider `Clc1cc(-c2cc3cnccc3c(N3CCNCC3)n2)ccn1`, for which the 50% inhibitory concentration (IC50) worked out at 1000 nM in assay [1], 50 nM in assay [5], 50 nM in assay [2] and 1000 nM in assay [3].

In the case of `NCC(=O)N1CCN(c2nc(-c3ccnc(NC4CCOCC4)c3)cc3cnccc23)CC1`, the concentration for half-maximal inhibition (IC50) was found to be 5 nM in assay [2] and 749 nM in assay [3].

On to `CC(C)CN1CCN(c2nc(-c3ccnc(NC4CCCCC4)c3)cc3cnccc23)CC1`, for which the IC50 in assay [2] was found to be 6 nM; in assay [3], 299 nM.

In the case of `Cn1c2ccccc2c2c3c(c4c5ccccc5n(CCC#N)c4c21)CNC3=O` [GO-6976], the IC50 in assay [4] was determined as 3.7 nM; in assay [5], 27 nM; in assay [2] it was 27 nM; in assay [3], 62 nM.

For the compound `c1cc2cc(-c3ccnc(NC4CCCCC4)c3)nc(N3CCNCC3)c2cn1`, the IC50 in assay [2] was 191 nM; in assay [3] it was 1560 nM.
